Experimental data published in patent US20080194522A1, “Development of Fluorogenic Substrates For Monoamine Oxidases (Mao-A and Mao-B)” (priority 2004, published 2008).
Entries after “also recorded” stand apart in the source; their conditions may differ. Marks after values point to notes of the source that are not given here.

Legend:
[1] = Photophysical characterization (absorbance, extinction coefficient, emission, quantum yield); assay type: physicochemical; settings: for ΦEtOH: EtOH; for ΦH2O: H2O; for fluorescence, in words: aqueous / phosphate buffer
Description: Extinction coefficients were the average of three independent determinations of three different readings from the lowest energy transition at three concentrations. Quantum yields are the average of three determinations of both quantum yield standard 9,10-diphenylanthracene and the synthesized coumarines at 340 nm unless otherwise indicated.
All spectra were recorded in 100 mM sodium phosphate (pH 7.4) unless otherwise indicated. Recorded λmax is that of the longest wavelength transition. Extinction coefficients were reported as the average of at least three independent preparations of the probes. Fluorescence measurements were taken on a Jobin Yvon Fluorolog fluorescence spectrofluorometer (slits 3, HV 750) in 100 mM sodium phosphate pH 7.4 buffer unless otherwise indicated. Quantum yields were measured relative to 9,10 diphenylanthracene in EtOH.4 Reported quantum efficiencies are the average of at least three independent preparations of the probes.
The extinction coefficient ε relates the absorbance of a compound to its concentration as expressed in Beer's law (A=εbc where A is absorbance, b is pathlength, and c is concentration). Extinction coefficients were the average of three independent determinations of three different readings of absorbance from the lowest energy transition at three concentrations. The quantum yield of fluorescence is the fraction of absorbed photons that lead to fluorescence; the number of photons fluoresced divided by the number of photons absorbed. To obtain the quantum yields of the synthesized coumarines their efficiency was compared to standard 9,10-diphenylanthracene at 340 nm in three different determinations. The effect of different solvents on the fluorescence of the compounds was also tested. The compounds were dissolved in methanol, chloroform and toluene and their emissions spectrum was taken.

Chemical stability = settings: in words
[2] = Solubility in aqueous solution; assay type: physicochemical; settings: in words
[3] = Table 3 hydroxyl-amine probes, in water
[4] = Table 5, 100 mM sodium phosphate pH 7.4
[5] = Table 5, 100 mM sodium phosphate pH 7.4, longest wavelength transition
[6] = Table 5, relative to 9,10-diphenyl anthracene (excited at 365 nm)
[7] = Table 4, in water, relative to 9,10-diphenyl anthracene (excited at 340 nm)
[8] = Table 4 indoles, in water, first λmax column
[9] = Table 4 indoles, in water, second λmax
[10] = Table 5, relative to 9,10-diphenyl anthracene (excited at 340 nm)

Nc1c(CCO)ccc2oc(=O)ccc12 [X]
ε (M^−1cm^−1) [1, 3]: 13,000 ± 3,000 M^−1cm^−1
λmax (nm) [1, 3]: 298 nm

7-(4-Amino-phenyl)-4-methyl-chromen-2-one [Probe 1]
ε (M^−1cm^−1) [1, 4]: 13,000 ± 1,000 M^−1cm^−1
λcm (nm) [1, 4]: 484 nm
λmax (nm) [1, 5]: 390 nm
ΦEtOH [1, 6]: 0.0287 ± 0.0006^b
ΦH2O [1, 6]: 0.00112 ± 0.00008^b

Nc1cc2ccc(=O)oc2cc1CCO [Probe 58, 6-Amino-7-(2-hydroxy-ethyl)-chromen-2-one]
fluorescence, in words [1]: basically non-fluorescent; also recorded: very weakly fluorescent

Cc1cc(=O)oc2cc(-c3ccc4[nH]ccc4c3)ccc12 [XI]
Φ [1, 7]: 0.00329 ± 0.00008^a
λmax (nm) [1, 8]: 339 nm
λmax (nm) [1, 9]: 445 nm

Cc1cc(=O)oc2ccc3cc[nH]c3c12 [Probe 55, 9-Methyl-1H-pyrano[2,3-g]indol-7-one]
fluorescence, in words [1]: quite fluorescent

7-(1H-Indol-5-yl)-4-methyl-chromen-2-one [Probe 4]
ε (M^−1cm^−1) [1, 4]: 11,600 ± 800 M^−1cm^−1
λmax (nm) [1, 5]: 349 nm
ΦEtOH [1, 10]: 0.36 ± 0.07^a
ΦH2O [1, 10]: 0.13 ± 0.02^a

Nc1ccc2oc(=O)ccc2c1CCO [IX]
Φ ([1]; Table 3, in water, relative to 9,10-diphenyl anthracene (excited at 365 nm)): 0.0017
ε (M^−1cm^−1) [1, 3]: 3,400 ± 500 M^−1cm^−1
λmax (nm) [1, 3]: 357 nm

O=c1ccc2cc3[nH]ccc3cc2o1 [XX]
Φ [1, 7]: 0.0082 ± 0.0004^a
ε (M^−1cm^−1) ([1]; Table 4 indoles, in water): 17,000 ± 2,000 M^−1cm^−1
λmax (nm) [1, 8]: 335 nm
λmax (nm) [1, 9]: 524 nm

NCCc1cc2oc(=O)ccc2cc1N [Probe 116, 6-Amino-7-(2-amino-ethyl)-chromen-2-one]
chemical stability (Chemical stability): perfectly stable
fluorescence, in words [1]: very weakly fluorescent

O=c1oc2c3c4c(cc2c(C(F)(F)F)c1-c1ccc2[nH]ccc2c1)CCCN4CCC3 [XV]
λmax (nm) [1, 8]: 439 nm
λmax (nm) [1, 9]: 557 nm

Cc1c(-c2ccc3[nH]ccc3c2)c(=O)oc2c3c4c(cc12)CCCN4CCC3 [Probe 24, 9-(1H-Indol-5-yl)-8-methyl-2,3,5,6-tetrahydro-1H, 4H-11-oxa-3a-aza-benzo[de]anthracen-10-one]
emission wavelength [1]: 495 nm

Cc1cc(=O)oc2ccc(N)c(CCN)c12 [IV]
Φ ([1]; Table 2, in water, relative to 9,10-diphenyl anthracene (excited at 340 nm)): 0.010

[4-(4-Methyl-2-oxo-2H-chromen-7-yl)-phenyl]-carbamic acid tert-butyl ester [Probe 2]
ε (M^−1cm^−1) [1, 4]: 17,000 ± 1,000 M^−1cm^−1
λcm (nm) [1, 4]: 477 nm
λmax (nm) [1, 5]: 401 nm
ΦEtOH [1, 6]: 0.59 ± 0.09^b
ΦH2O [1, 6]: 0.08 ± 0.01^b

Cc1cc(=O)oc2ccc3cc[nH]c3c12 [XVII]
Φ [1, 7]: 0.0531 ± 0.0001^a
ε (M^−1cm^−1) ([1]; Table 4 indoles, in water): 14,000 ± 3,000 M^−1cm^−1
λmax (nm) [1, 8]: 330 nm
λmax (nm) [1, 9]: 488 nm

7-[4-Amino-3-(2-hydroxy-ethyl)-phenyl]-4-methyl-chromen-2-one [Probe 3]
λcm (nm) [1, 4]: 492 nm
λmax (nm) [1, 5]: 350 nm
ΦH2O [1, 10]: 0.010 ± 0.003^a

CCN(CC)c1ccc2c(C)c(-c3ccc(N)c(CCN)c3)c(=O)oc2c1 [I]
ε (M^−1cm^−1) ([1]; Table 2 diamines, in water): 13,000 ± 1,000 M^−1cm^−1
λcm (nm) ([1]; Table 2 diamines, in water): 484 nm
λmax (nm) ([1]; Table 2 diamines, in water): 390 nm

Cc1cc(=O)oc2ccc3[nH]ccc3c12 [Probe 52, 9-Methyl-3H-pyrano[3,2-e]indol-7-one]
fluorescence, in words [1]: quite fluorescent

CCN(CC)c1ccc2c(C)c(-c3ccc(N)c(CCN)c3)c(=O)oc2c1 [Probe 114, 3-[4-Amino-3-(2-amino-ethyl)-phenyl]-7-diethylamino-4-methyl-chromen-2-one]
chemical stability (Chemical stability): desired chemical stability
solubility in aqueous solution [2]: water solubility
